The values below come from patent publication US4473572A, “α2 -Adrenoceptor antagonistic benzoquinolizines” (John Wyeth & Brother, Limited, priority 1982, dated 1984).

The target of one experiment is T1, α1-adrenoceptor (Rattus norvegicus, UniProt P43140).
T1 construct: isolated anococcygeus muscle of the rat; from tissue; host or cells: anococcygeus muscle of male rats (250-360 g)
T1 sequence (P43140 1-466): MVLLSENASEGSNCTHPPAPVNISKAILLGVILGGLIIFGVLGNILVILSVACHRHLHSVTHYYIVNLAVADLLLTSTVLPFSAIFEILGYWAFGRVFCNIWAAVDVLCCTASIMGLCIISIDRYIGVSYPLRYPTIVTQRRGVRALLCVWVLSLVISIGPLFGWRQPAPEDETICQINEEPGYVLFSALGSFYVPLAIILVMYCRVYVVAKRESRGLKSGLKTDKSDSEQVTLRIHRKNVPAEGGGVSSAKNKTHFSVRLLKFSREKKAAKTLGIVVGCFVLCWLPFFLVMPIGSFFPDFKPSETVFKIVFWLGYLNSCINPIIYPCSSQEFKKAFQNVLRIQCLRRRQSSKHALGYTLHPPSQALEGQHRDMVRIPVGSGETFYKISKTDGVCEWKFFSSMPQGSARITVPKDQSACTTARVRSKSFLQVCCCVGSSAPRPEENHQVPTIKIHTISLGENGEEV
Nature of the experiment: α1 antagonistic activity on the isolated anococcygeus muscle of the rat (against phenylephrine or methoxamine). Particulars: antagonist of phenylephrine or methoxamine, 37°, 10^-6 to 10^-4 M test drug, 30 min equilibration, read-out: pA2 (α1) (converted). The source says:
The α1 antagonistic activity can be evaluated by a number of different methods. One method involves assessing the activity on the isolated anococcygeus muscle of the rat. The method is based on that of Gillespie, Br.J.Pharmac., 1972, 45, 404-416. In the procedure male rats (250-360 g) are killed by a blow on the head and bled. The two anococcygeus muscles are removed from their position in the midline of the pelvic cavity, where they arise from the upper coccygeal vertebrae. The muscles are suspended in 5 ml organ baths in Krebs solution containing 10^-4 M ascorbic acid, to prevent drug oxidation. The tissues are gassed with a 95% oxygen, 5% CO2 mixture and maintained at 37°. Longitudinal muscle contractions are recorded using isotonic transducers. Cumulative dose response curves are then obtained to phenylephrine or in some cases methoxamine, both agents being […] alpha adrenoceptor agonists. The concentration range of phenylephrine or methoxamine used is 0.02 to 0.8 μg.ml^-1. The agonist is then washed from the bath and the test drug added to the bathing medium at a concentration of 10^-6 M. After 30 min. equilibration with the test drug a further agonist dose response curve is obtained. The washing, equilibration and agonists dosing procedures are then repeated using 10^-5 M and 10^-4 M solutions of the test drug. Estimates of the pA2 value for the test drug as an antagonist of phenylephrine or methoxamine were made from the agonist dose-ratios using the method of Arunlakshana & Schild, Br.J.Pharmac.Chemother., 1959, 14, 48-58.

The target of a further experiment is T2, α2-adrenoceptor (Rattus norvegicus, UniProt P22909).
T2 construct: from tissue; host or cells: desheathed vas deferens of sexually mature rats
T2 sequence (P22909 1-465): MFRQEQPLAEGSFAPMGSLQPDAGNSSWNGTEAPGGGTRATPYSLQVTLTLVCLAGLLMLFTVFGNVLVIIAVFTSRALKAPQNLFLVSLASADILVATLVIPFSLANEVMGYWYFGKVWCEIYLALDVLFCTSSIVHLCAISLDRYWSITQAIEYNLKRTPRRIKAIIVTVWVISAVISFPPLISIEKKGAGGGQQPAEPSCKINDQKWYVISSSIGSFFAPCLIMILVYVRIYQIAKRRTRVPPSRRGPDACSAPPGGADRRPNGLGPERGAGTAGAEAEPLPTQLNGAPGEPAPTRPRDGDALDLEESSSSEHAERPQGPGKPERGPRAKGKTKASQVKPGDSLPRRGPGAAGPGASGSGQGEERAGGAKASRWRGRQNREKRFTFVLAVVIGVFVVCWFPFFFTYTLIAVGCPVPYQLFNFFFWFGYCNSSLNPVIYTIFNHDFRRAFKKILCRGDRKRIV
Description: α2-adrenoceptor antagonistic activity on the rat field stimulated vas deferens preparation (against clonidine). Particulars: for α2/α1 selectivity: antilog of (α2 pA2 - α1 pA2); for Kb: rat field stimulated vas deferens, clonidine as agonist, 37°, 90 min after introduction of antagonist, Arunlakshana & Schild, read-out: pA2 (α2) (converted). The method, then: The compounds of the invention were tested for their α2 -adrenoceptor antagonistic activity on the rat field stimulated vas deferens preparation using a modification of the method of Drew, Eur.J.Pharmac., 1977, 42, 123-130. The procedure is described below.
Desheathed vas deferentia from sexually mature rats were suspended in a 6 ml organ bath in Krebs solution at 37° and bubbled with 5% CO2 in oxygen. Platinum ring electrodes were positioned above and below the tissue for field stimulation, the stimulus parameters being 0.1 Hz 1 ms pulse width at supramaximal voltage. Twitch responses were recorded isotonically with a 0.5 g loading. Clonidine hydrochloride was used as the α-adrenoceptor agonist and cumulative concentration-response curves were constructed for the inhibition of twitch obtained with clonidine in the range 0.125 to 4 ng ml^-1. After washing out clonidine, the twitch response quickly recovered and an antagonist was then introduced into the Krebs reservoir. Clonidine concentration-response curves were repeated 90 min after introduction of the antagonist. The concentration of clonidine producing 50% inhibition of twitch before and after introduction of antagonist were obtained and the dose-ratio for clonidine was calculated. Various concentrations of the antagonists were used.
Chemother., 1959, 14, 48-58 and the values of pA2 and slope were calculated.

In the case of `CN([C@H]1CCN2CCc3ccccc3[C@H]2C1)S(=O)(=O)CC(F)(F)F` (relative stereo) [Example 2, N-Methyl-N-(1,3,4,6,7,11bα-hexahydro-2H-benzo[a]quinolizin-2β-yl)-2',2',2'-trifluoroethanesulphonamide], the Kb at α1-adrenoceptor is 1170 nM. Further, on α2-adrenoceptor, the α2/α1 selectivity is 43 and the Kb was 27.5 nM.

Consider `CN([C@H]1CCN2CCc3ccccc3[C@H]2C1)S(=O)(=O)CCCCl` (relative stereo) [Example 4, N-Methyl-N-(1,3,4,6,8,11bα-hexahydro-2H-benzo[a]quinolizin-2β-yl)-3'-chloropropanesulphonamide], for which, on α1-adrenoceptor, the Kb is 288 nM. On α2-adrenoceptor, the α2/α1 selectivity amounted to 27.5 and the Kb is 8.32 nM.

For the compound `CN([C@H]1CCN2CCc3ccccc3[C@H]2C1)S(=O)(=O)C(F)(F)F` (relative stereo) [Example 1, N-Methyl-N-(1,3,4,6,7,11bα-hexahydro-2H-benzo[a]quinolizin-2β-yl)-trifluoromethanesulphonamide], the Kb on α1-adrenoceptor is 3240 nM. Also, at α2-adrenoceptor, the α2/α1 selectivity is 46 and the Kb was 70.8 nM.

`CN([C@H]1CCN2CCc3ccccc3[C@H]2C1)S(=O)(=O)CCl` (relative stereo) [Example 3, N-Methyl-N-(1,3,4,6,7,11bα-hexahydro-2H-benzo[a]quinolizin-2β-yl)chloromethanesulphonamide]: the Kb at α1-adrenoceptor is 245 nM. Moreover, on α2-adrenoceptor, the α2/α1 selectivity was determined as 45 and the Kb was 8.91 nM.
